PMC6271551 (2014)

Test system: F21T (DNA, G4) GGGTTAGGGTTAGGGTTAGGG
Assay: FRET melting
Conditions: 0.1 M KCl, 10 mM sodium cacodylate pH 7.2, 0.25 µM DNA

Compound	ΔTm (120 µM compound, authors: almost no interaction)	ΔTm (50 µM compound)
COc1ccc(Cc2nccc3cc(OC)c(OC)cc23)cc1OC	~ 5 °C	
COc1ccc2cc3[n+](cc2c1OC)CCc1cc2c(cc1-3)OCO2		~ 15.5 °C
